Patent publication US20230241061A1, “METHODS AND PHARMACEUTICAL COMPOSITIONS FOR THE TREATMENT OF FGFR3-RELATED COGNITIVE DEFICIT” (INSERM (INSTITUT NATIONAL DE LA SANTÉ ET DE LA RECHERCHE …, priority 2020, published 2023)
Entries after “also recorded” stand apart in the source; their conditions may differ.

What was measured:
Fgfr3^Asn534Lys/+ mice [1] = test: Novel object recognition (NOR) in HCH mouse model; type: in vivo; conditions: 4 months old male Fgfr3^Asn534Lys/+ mice, daily subcutaneous 2 mg/kg for six days, p= 0.8697 vs control littermates, FIG. 3B
Method: FIG. 3: Learning impairment is reverse by FGFR3 tyrosine kinase inhibitor daily subcutaneous injection of BGJ398. A. Novel object location (NOL) was performed in 4 months old male animals. Discrimination index was measured 24 h after training phase to assess memory performance of Fgfr3Asn534Lys/+ and their control littermates. B. Novel object recognition (NOR) was performed in 4 months old male animals. Discrimination index was measured 24 h after training phase to assess memory performance of Fgfr3Asn534Lys/+ + BGJ398, Fgfr3Asn534Lys/+ and their control littermates. […]
(§1) We used a modified version of the NOR task as described in Glatigny et al., 2019. […] The testing room was lit with two 60-W light bulbs and behavior sessions were recorded with a camera above the testing arena (grey plastic box (60 × 40 × 32 cm)). […] The objects elicited equal levels of exploration as determined in pilot experiments and training phase. […]
The following behaviors were considered as exploration of the objects: sniffing, licking, or touching the object with the nose or with the front legs or directing the nose to the object at a distance ≤ 1 cm. Investigation was not scored if the mouse was on top of the object or completely immobile. The discrimination index was calculated as (time spent exploring the new object - time spent exploring the familiar object) / (total time spent exploring both objects). […]

FGFR3 [2] = biological target: T1, FGFR3 (Mus musculus, UniProt Q61851, A385E); test: FGFR3 overactivation in the brain of CAN mouse model; type: in vivo; conditions: Fgfr3^A385E/+ mice
T1 construct: from tissue; host or cells: brain (hippocampus) of Fgfr3^A385E/+ knock-in mice
T1 sequence (Q61851 21-801 A385E): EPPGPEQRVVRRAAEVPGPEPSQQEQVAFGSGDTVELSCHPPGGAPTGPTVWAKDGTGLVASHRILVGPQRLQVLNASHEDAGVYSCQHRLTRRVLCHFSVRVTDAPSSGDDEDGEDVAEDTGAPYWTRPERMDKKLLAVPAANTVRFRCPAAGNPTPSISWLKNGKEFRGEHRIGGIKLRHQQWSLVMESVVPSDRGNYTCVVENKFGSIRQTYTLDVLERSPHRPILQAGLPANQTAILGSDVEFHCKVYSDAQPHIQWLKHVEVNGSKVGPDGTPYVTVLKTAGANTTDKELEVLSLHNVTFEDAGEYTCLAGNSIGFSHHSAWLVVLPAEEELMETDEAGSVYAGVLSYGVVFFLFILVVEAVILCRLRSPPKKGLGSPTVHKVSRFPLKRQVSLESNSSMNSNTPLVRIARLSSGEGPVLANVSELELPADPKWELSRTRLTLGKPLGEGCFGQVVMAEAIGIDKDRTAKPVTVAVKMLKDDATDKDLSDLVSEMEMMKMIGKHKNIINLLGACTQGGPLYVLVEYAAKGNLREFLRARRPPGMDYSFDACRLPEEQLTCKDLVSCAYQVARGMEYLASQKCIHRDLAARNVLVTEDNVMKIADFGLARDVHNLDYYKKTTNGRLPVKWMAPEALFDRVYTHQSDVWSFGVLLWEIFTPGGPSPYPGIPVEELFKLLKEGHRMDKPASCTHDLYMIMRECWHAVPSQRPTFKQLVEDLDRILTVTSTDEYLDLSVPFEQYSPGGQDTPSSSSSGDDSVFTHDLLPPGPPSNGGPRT

[3] = test system: FGFR3 related Achondroplasia mouse model; conditions: subcutaneous injections, Komla-Ebri et al. 2016; cited from earlier work
Fgfr3^A385E/+ mice [4] = test: Novel object recognition (NOR) in CAN mouse model; type: in vivo; conditions: 4-month-old male Fgfr3^A385E/+ mice, daily intra-cerebro-ventricular injections for 7 days, compared to control littermates, FIG. 2B
Method: A. Local daily intracerebroventricular injection with either BGJ398 or vehicle in 4 month-old male animals during 7 days. NOR training session occurred 1 hour after last injection B. NOR performed on groups injected with vehicle or BGJ398. Injection and NOR were performed on two independent groups with the three conditions each (Fgfr3^+/+ + vehicle, n=15; Fgfr3^A385E/+ + vehicle, n=14; Fgfr3^A385E/+ + BGJ398, n=14. C. Local daily intracerebroventricular injection with either BGJ398 or vehicle in 4 month-old male animals during 7 days. One FST testing session occurring 1 hour after last injection. Immobility duration was assessed during testing. D. FST performed on groups injected with vehicle or BGJ398. Injection and FST were performed on two independent groups with the three conditions each (Fgfr3^+/+ + vehicle, n=15; Fgfr3^A385E/+ + vehicle, n=14; Fgfr3^A385E/+ + BGJ398, n=14). *P<0.05 **P<0.01, ***P<0.001.NS Not significant by ANOVA with Tukey’s multiple comparisons post-test and Student’s unpaired t test. […]
as §1

Fgfr3^Asn534Lys/+ mice [5] = test: Novel object location (NOL) in HCH mouse model; type: in vivo; conditions: 4 months old male Fgfr3^Asn534Lys/+ mice, daily subcutaneous 2 mg/kg for six days, p= 0.9538 vs control littermates, FIG. 3A
Method: FIG. 3: Learning impairment is reverse by FGFR3 tyrosine kinase inhibitor daily subcutaneous injection of BGJ398. A. Novel object location (NOL) was performed in 4 months old male animals. Discrimination index was measured 24 h after training phase to assess memory performance of Fgfr3Asn534Lys/+ and their control littermates. B. Novel object recognition (NOR) was performed in 4 months old male animals. Discrimination index was measured 24 h after training phase to assess memory performance of Fgfr3Asn534Lys/+ + BGJ398, Fgfr3Asn534Lys/+ and their control littermates. NOR and NOL were performed on two independent groups of Fgfr3Asn534Lys/+ (n=12) Fgfr3Asn534Lys/+ + BGJ398 (n=14) and their controls (n=14).
(§2) BGJ398 was purchased from LC Laboratories, Woburn, MA, USA. […]
For the novel object location task, all procedures were identical to the novel object recognition task except that during the testing phase, rather than presenting a novel object, mice encountered both familiar objects, with one object located in a different place in the arena. The time and frequency of exploration of the novel/relocated object is measured as an index of memory. Behavior was scored on videos by two observers blind to treatment and the total exploration time of the objects was quantified in the testing phases.

Fgfr3^A385E/+ mice [6] = test: Forced swim test (FST) in CAN mouse model; type: in vivo; conditions: 4-month-old male Fgfr3^A385E/+ mice, daily intra-cerebro-ventricular injections for 7 days, test 1 hour after last injection, FIG. 2D
Method: A. Local daily intracerebroventricular injection with either BGJ398 or vehicle in 4 month-old male animals during 7 days. NOR training session occurred 1 hour after last injection B. NOR performed on groups injected with vehicle or BGJ398. Injection and NOR were performed on two independent groups with the three conditions each (Fgfr3^+/+ + vehicle, n=15; Fgfr3^A385E/+ + vehicle, n=14; Fgfr3^A385E/+ + BGJ398, n=14. C. Local daily intracerebroventricular injection with either BGJ398 or vehicle in 4 month-old male animals during 7 days. One FST testing session occurring 1 hour after last injection. Immobility duration was assessed during testing. D. FST performed on groups injected with vehicle or BGJ398. Injection and FST were performed on two independent groups with the three conditions each (Fgfr3^+/+ + vehicle, n=15; Fgfr3^A385E/+ + vehicle, n=14; Fgfr3^A385E/+ + BGJ398, n=14). *P<0.05 **P<0.01, ***P<0.001.NS Not significant by ANOVA with Tukey’s multiple comparisons post-test and Student’s unpaired t test.
as §2
This test is based on a similar observation than the TST. […] Mice were tested for 5 min, and the time spent immobile (behavioral despair) was quantified.

FGFR3 [7] = biological target: FGFR3 (Homo sapiens, UniProt P22607); conditions: reason given for selecting the inhibitor; cited from earlier work
Sequence of FGFR3 (Homo sapiens, UniProt P22607) (P22607 23-806, species assumed): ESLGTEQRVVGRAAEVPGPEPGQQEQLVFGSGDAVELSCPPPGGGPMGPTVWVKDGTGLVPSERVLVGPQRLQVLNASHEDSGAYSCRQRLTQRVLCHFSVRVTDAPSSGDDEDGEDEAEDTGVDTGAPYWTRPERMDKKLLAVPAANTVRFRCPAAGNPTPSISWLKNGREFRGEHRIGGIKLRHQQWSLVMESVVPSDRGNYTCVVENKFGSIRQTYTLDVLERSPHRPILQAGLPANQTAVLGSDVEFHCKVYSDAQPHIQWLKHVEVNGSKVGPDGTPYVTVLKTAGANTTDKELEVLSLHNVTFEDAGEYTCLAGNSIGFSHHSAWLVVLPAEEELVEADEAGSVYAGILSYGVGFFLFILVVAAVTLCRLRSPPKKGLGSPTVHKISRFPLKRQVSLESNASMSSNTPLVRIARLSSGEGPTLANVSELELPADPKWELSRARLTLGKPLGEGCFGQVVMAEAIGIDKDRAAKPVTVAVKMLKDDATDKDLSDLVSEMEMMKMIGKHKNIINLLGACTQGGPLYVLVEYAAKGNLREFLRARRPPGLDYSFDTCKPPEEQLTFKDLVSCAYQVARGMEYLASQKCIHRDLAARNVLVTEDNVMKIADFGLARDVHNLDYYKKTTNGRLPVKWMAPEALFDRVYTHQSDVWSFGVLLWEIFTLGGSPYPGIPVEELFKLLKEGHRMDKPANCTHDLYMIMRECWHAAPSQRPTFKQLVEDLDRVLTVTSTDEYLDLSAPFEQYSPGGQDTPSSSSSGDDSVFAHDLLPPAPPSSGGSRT

## CCN1CCN(c2ccc(Nc3cc(N(C)C(=O)Nc4c(Cl)c(OC)cc(OC)c4Cl)ncn3)cc2)CC1 [BGJ398, 3-(2,6-dichloro-3,5-dimethoxyphenyl)-1-[6-[4-(4-ethylpiperazin-1-yl)anilino]pyrimidin-4-yl]-1-methylurea]
Fgfr3^Asn534Lys/+ mice [1]
  episodic memory deficit (NOR), exploration of the novel object: to the same levels than control littermates
FGFR3 [2]
  FGFR3 overactivation in the brain: inhibited the FGFR3 overactivation in the brain
[3]
  FGFR3 over-activation: abolished the FGFR3 over-activation
  chondrodysplasia phenotype / skeletal anomalies: rescued the chondrodysplasia phenotype; also recorded: efficacy of BGJ398 in skeletal anomalies
Fgfr3^A385E/+ mice [4]
  memory deficits in the NOR paradigm (discrimination index): reversed the memory deficits
Fgfr3^Asn534Lys/+ mice [5]
  spatial memory deficit (NOL), exploration of the relocated object: sufficient to restore the spatial (NOL)
Fgfr3^A385E/+ mice [6]
  coping strategy to an inescapable stress in the FST (immobility duration): reestablished the coping strategy to an inescapable stress
FGFR3 [7]
  binding specificity for FGFR3: highest binding specificity for FGFR3
